Measurements taken from paper PMC3412067 (Journal of medicinal chemistry, 2012).
Entries after “also recorded” stand apart in the source; their conditions may differ. Read-outs that look alike come from different tables or passages of the source. Marks after values point to notes of the source that are not given here.

How the values were obtained:
CD-1 mice [1] = assay: Radiant heat tail flick analgesia assay; format: in vivo, mouse; details: for analgesic activity (in words): tail flick, doses as high as 10 mg/kg
CD-1 mice [2] = details: cited from earlier work
mice [3] = details: cited from earlier work
[4] = cited from earlier work
mice [5] = details: cited from earlier work; remark: listed apart in the source
knockout mouse = details: cited from earlier work
mice [6] = details: cited from earlier work; remark: listed apart in the source
MOR-1 (mu) = MOR-1 (mu) (Mus musculus, UniProt P42866); assay: Competition binding against 125I-BNtxA in CHO cells stably expressing MOR-1
KOR-1 (kappa) = KOR-1 (kappa) (Mus musculus, UniProt P33534); assay: Competition binding against 125I-BNtxA in CHO cells stably expressing KOR-1
mice [7] = assay: Respiratory depression assay; format: in vivo, mouse; details: 15 2.5 mg/kg s.c., morphine 20 mg/kg s.c., about 4-fold analgesic ED50; n=5
DOR-1 (delta) = DOR-1 (delta) (Mus musculus, UniProt P32300); assay: Competition binding against 125I-BNtxA in CHO cells stably expressing DOR-1; details: for fold lower affinity for delta receptors: compared to 15
6TM/E11 sites = 6TM/E11 sites (Mus musculus, UniProt P42866); format: binding; details: compared to 15

## 17-Allyl-3,14β-dihydroxy-4,5α-epoxy-6β-[2-adamantylamido]morphinan [Compound 37]
CD-1 mice [1]; s.c., CD-1 mice, radiant heat tail flick, (95% confidence limits)
  Tail flick analgesia ED50 mg/kg (95%CL): >10 mg/kg

## O=C(N[C@@H]1CC[C@@]2(O)[C@H]3Cc4ccc(O)c5c4[C@@]2(CCN3CC2CC2)[C@H]1O5)c1cccc(I)c1 [Compound 1, 3-Iodobenzoylnaltrexamide]
CD-1 mice [2]; (95% confidence limits), values from the literature ref 26
  Tail flick analgesia ED50 mg/kg (95%CL): 0.39 (0.15, 0.58) ^a mg/kg
CD-1 mice [2]
  cross tolerance to morphine (in words): no observable
CD-1 mice [2]; compared to morphine ref 26
  analgesic potency fold greater than morphine: 10 fold
Mice [3]
  inhibition of gastrointestinal transit (in words): limited inhibition of gastrointestinal transit
[4]
  rewarding behavior in the conditioned place preference assay (in words): no observable
Mice [5]
  physical dependence (in words): no observable
Knockout mouse; E11 knockout mouse, disruption of exon 11-associated variants ref 26
  analgesic activity in E11 knockout mouse (in words): without activity
Knockout mouse; triple knockout mouse lacking traditional mu, delta and kappa1 receptors ref 26
  analgesic activity in MOR-1/DOR-1/KOR-1 triple knockout mouse (in words): retained full analgesic activity
Mice [6]
  respiratory depression (in words): no observable respiratory depression

## CN1CC[C@]23c4c5ccc(O)c4O[C@H]2[C@H](NC(=O)c2cccc(I)c2)CC[C@@]3(O)[C@H]1C5 [Compound 14]
CD-1 mice [1]; s.c.
  analgesic activity (in words): No analgesia could be detected

## C=CCN1CC[C@]23c4c5ccc(O)c4O[C@H]2[C@H](NC(=O)c2cccc(I)c2)CC[C@@]3(O)[C@H]1C5 [Compound 15, 17-Allyl-3,14β-dihydroxy-4,5α-epoxy-6β-[(3′-iodo)benzamido]morphinan]
MOR-1 (mu); compared to 1
  fold lower affinity for mu receptors: about 2 fold
KOR-1 (kappa); compared to 1
  fold lower affinity for kappa receptors: about 2 fold
Mice [7]
  effect on respiratory rate (in words): did not depress respiratory rate; also recorded: no respiratory depression
CD-1 mice [1]; compared to morphine
  fold more potent an analgesic than morphine: 10 fold

## C=CCN1CC[C@]23c4c5ccc(O)c4O[C@H]2[C@@H](NC(=O)c2cccc(I)c2)CC[C@@]3(O)[C@H]1C5 [Compound 16, 17-Allyl-3,14β-dihydroxy-4,5α-epoxy-6α-[(3′-iodo)benzamido]morphinan]
DOR-1 (delta)
  fold lower affinity for delta receptors: 3 fold
MOR-1 (mu); compared to 15
  fold lower affinity for mu receptors: 23 fold
KOR-1 (kappa); compared to 15
  fold lower affinity for kappa receptors: 150 fold
6TM/E11 sites
  fold lower binding affinity for the 6TM/E11 site: 33 fold
CD-1 mice [1]; compared to 15
  fold higher ED50 / lower analgesic activity: 10 fold

## C=CCN1CC[C@]23c4c5ccc(O)c4O[C@H]2[C@H](NC(=O)c2ccccc2I)CC[C@@]3(O)[C@H]1C5 [Compound 17, 17-Allyl-3,14β-dihydroxy-4,5α-epoxy-6β-[(2′-iodo)benzamido]morphinan]
DOR-1 (delta)
  fold lower affinity for delta receptors: approximately 10 fold
MOR-1 (mu); compared to 15
  fold lower affinity for mu receptors: approximately 10 fold
KOR-1 (kappa); compared to 15
  fold lower affinity for kappa receptors: approximately 10 fold
6TM/E11 sites
  fold lower binding affinity for the 6TM/E11 site: 100 fold
CD-1 mice [1]; s.c.
  analgesic activity (in words): eliminated its analgesic activity

## C=CCN1CC[C@]23c4c5ccc(O)c4O[C@H]2[C@H](NC(=O)c2ccccc2)CC[C@@]3(O)[C@H]1C5 [Compound 22, 17-Allyl-3,14β-dihydroxy-4,5α-epoxy-6β-(benzamido)morphinan]
DOR-1 (delta)
  fold lower affinity for delta receptors: ~25 fold
MOR-1 (mu); compared to 15
  fold lower affinity for mu receptors: about 20 fold
KOR-1 (kappa); compared to 15
  fold lower affinity for kappa receptors: ~180 fold
6TM/E11 sites
  fold lower binding affinity for the 6TM/E11 site: over 20 fold

## C=CCN1CC[C@]23c4c5ccc(O)c4O[C@H]2[C@H](NC(=O)c2cccc(C(F)(F)F)c2)CC[C@@]3(O)[C@H]1C5 [Compound 24, 17-Allyl-3,14β-dihydroxy-4,5α-epoxy-6β-[(3′-trifluoromethyl)benzamido]morphinan]
CD-1 mice [1]; s.c.
  analgesic activity (in words): potent analgesic actions

## C=CCN1CC[C@]23c4c5ccc(O)c4O[C@H]2[C@H](NC(=O)c2cccc(OC)c2)CC[C@@]3(O)[C@H]1C5 [Compound 25, 17-Allyl-3,14β-dihydroxy-4,5α-epoxy-6β-[(3′-methoxy)benzamido]morphinan]
MOR-1 (mu); mu vs delta
  fold mu selectivity over delta: 100 fold
6TM/E11 sites
  fold lower binding affinity for the 6TM/E11 site: 10 fold
CD-1 mice [1]; compared to 15
  fold greater analgesic potency: over 3 fold
CD-1 mice [1]; s.c.
  analgesic activity (in words): potent analgesic actions

## C=CCN1CC[C@]23c4c5ccc(O)c4O[C@H]2[C@H](NC(=O)c2ccc(-c4ccccc4)cc2)CC[C@@]3(O)[C@H]1C5 [Compound 32, 17-Allyl-3,14β-dihydroxy-4,5α-epoxy-6β-[(4′-phenyl)benzamido]morphinan]
CD-1 mice [1]; s.c.
  analgesic activity (in words): not analgesic

## C=CCN1CC[C@]23c4c5ccc(O)c4O[C@H]2[C@H](NC(=O)CCCCC)CC[C@@]3(O)[C@H]1C5 [Compound 34, 17-Allyl-3,14β-dihydroxy-4,5α-epoxy-6β-(hexylamido)morphinan]
KOR-1 (kappa)
  Ki: 9150 ± 940 pM

## O=C(NC1CCC2(O)C3Cc4ccc(O)c5c4C2(CCN3CC2CC2)C1O5)c1cccc(I)c1 (stereo not shown) [Compound 125IBNtxA, reference compound]
DOR-1 (delta); read-out: 125IBNtxA KD DOR-1, radioligand KD
  Kd: 240 pM
MOR-1 (mu); read-out: 125IBNtxA KD MOR-1, radioligand KD
  Kd: 110 pM
KOR-1 (kappa); read-out: 125IBNtxA KD KOR-1, radioligand KD
  Kd: 30 pM

## CN1CC[C@]23c4c5ccc(O)c4O[C@H]2[C@@H](O)C=C[C@H]3[C@H]1C5 [morphine, reference compound]
Mice [7]
  effect on respiratory rate (in words): decreases respiratory depression
